Several values for one entry are separate records, joined by “and”; a condition that tells them apart may be missing. Equal values may be shown once. Read-outs that look alike come from different tables or passages of the source.
How the values were obtained:
[1] = tested on: HIV-1; conditions: for Change in inducible reservoir size: day 0 versus day 42; for TILDA reservoir, cells with multiply spliced HIV-RNA detectable per million CD4+ T-cells, >1year / TILDA reservoir, cells with multiply spliced HIV-RNA detectable per million CD4+ T-cells, Day 42 / TILDA reservoir, cells with multiply spliced HIV-RNA detectable per million CD4+ T-cells, Day 0, 0 hour: individual participants, one value each; for TILDA reservoir, cells with multiply spliced HIV-RNA detectable per million CD4+ T-cells, >1year: >1 year after end of treatment; for TILDA reservoir, cells with multiply spliced HIV-RNA detectable per million CD4+ T-cells, Day 0, 0 hour: pretreatment baseline
Method: Here, the measurement from the cells obtained >1 year after the last visit was used.
The frequency of CD4^+ T cells expressing MS HIV-1 RNA was determined using TILDA with some modifications to the protocol described previously by our group ([68]). Briefly, total CD4^+ T cells were isolated from PBMCs by negative magnetic selection using EasySep CD4^+ Human CD4^+ T Cell Enrichment kit ([…] Technologies). Following isolation, 1.5 × 10^6 CD4^+ T cells/ml were rested in complete RPMI 1640 for 5 to 8 hours before 12 hours of stimulation with PMA (100 ng/ml) and ionomycin (1 μg/ml) (both from Sigma-Aldrich). After stimulation, CD4^+ T cells were washed and resuspended in serum-free RPMI 1640. Cells were counted and serially diluted accordingly: 1.8 × 10^6 cells/ml, 9 × 10^5 cells/ml, 3 × 10^5 cells/ml, and 1 × 10^5 cells/m. […] In the preamplification reaction, 10 μl of the cell suspension from each dilution was dispensed into 24 to 48 wells of a 96-well plate containing 2 μl of one-step RT-PCR enzyme (Qiagen), 10 μl of 5× one-step RT-PCR buffer (Qiagen), 10 μl of Triton X-100 (0.3%), 0.25 μl of RNAsin (40 U/μl), 2 μl of dNTPs (10 mM each), 1 μl of tat1.4 forward primer (20 μM) and rev reverse primer (20 μM) (as published), and nuclease-free water to a final reaction volume of 50 μl. The one-step RT-PCR was run using the following thermocycling conditions: 50°C for 30 min, 95°C for 15 min, followed by 25 cycles of 95°C for 1 min, 55°C for 1 min, and 72°C for 2 min, and a final extension at 72°C for 5 min. After preamplification, 2 μl of the products was used as input for the real-time PCR to detect tat/rev MS HIV-1 RNA in a final reaction volume of 20 μl, which consisted of 5 μl of 4× TaqMan Fast Advanced Master mix (Thermo Fisher Scientific), 0.4 μl of tat2.0 forward primer, rev reverse primer (each at 20 μM), and MS tat/rev probe (5 μM). The real-time PCR was performed using the following program: 50°C for 5 min, 95°C for 20 s, followed by 45 cycles of 95°C for 3 s and 60°C for 30 s. Positive wells at each dilution were recorded and used to determine the frequency of cells expressing tat/rev MS HIV-1 RNA by the maximum likelihood method.

[2] = Clinical safety: adverse events (CTCAE version 4.0) and treatment adjustments; format: in vivo, human; conditions: for Participants who stopped treatment: 14-day intervention, seven participants per arm
Method: Hematological parameters and kidney and liver function were monitored before treatment and on days 7, 14, and 42. At each study visit, participants were clinically assessed by the study physician and safety assessments were performed. All participant-reported AE and SAE were evaluated in relation to VPA and pyrimethamine. Severity was graded according to the Common Terminology Criteria for Adverse Events (CTCAE) version 4.0. In the study protocol, a number of stopping rules were defined including a prespecified interim analysis after the inclusion of 14 participants focusing on the number of participants discontinuing study medication during the intervention phase, CD4^+ T cell count <200 cells/μl, possibly drug-related SAE/AE ≥ grade 4, or AIDS-related illness (Centers for Disease Control category C events).

[3] = tested on: HIV-1; conditions: for Plasma HIV-1 RNA in the participants not remaining below LOQ: entire 6-week trial period, two on VPA, one on pyrimethamine, one on combination; for Plasma HIV-1 RNA, Day 0, 6hr / Plasma HIV-1 RNA, Day 1 / Plasma HIV-1 RNA, Day 7 / Plasma HIV-1 RNA, Day 10 / Plasma HIV-1 RNA, Day 14 / Plasma HIV-1 RNA, Day 15 / Plasma HIV-1 RNA, Day 21 / Plasma HIV-1 RNA, Day 42 / Plasma HIV-1 RNA, Day 28 / Plasma HIV-1 RNA, Day 0, 0hr: individual participants, one value each, /N; for Plasma HIV-1 RNA, Day 0, 6hr / Plasma HIV-1 RNA, Day 1 / Plasma HIV-1 RNA, Day 7 / Plasma HIV-1 RNA, Day 10 / Plasma HIV-1 RNA, Day 14 / Plasma HIV-1 RNA, Day 15 / Plasma HIV-1 RNA, Day 21 / Plasma HIV-1 RNA, Day 42 / Plasma HIV-1 RNA, Day 28: /P suffix not kept; for Plasma HIV-1 RNA, Day 0, 0hr: pretreatment, /P suffix (genome not detected / detected below quantitation) not kept
Text: To achieve a constant and the earliest Tmax possible, participants received their first dose of the intervention regimen on day 0 in a fasted state. On day 0, cART and study medication intake were taken under direct supervision of the study staff. The 2-week intervention phase was followed by a 4-week post-intervention phase. Overall, participation involved 11 study visits. To obtain an additional post-intervention phase measurement for the inducible HIV-1 reservoir size, the study was amended and participants were asked to give written consent to an extra blood draw after the 4-week post-intervention phase ended. Plasma HIV-1 RNA levels (COBAS TaqMan; Roche, Basel, Switzerland; LOQ, 20 copies/ml) were monitored at all 11 visits. CD4^+ T cell counts were determined at screening, at the start and end of the intervention phase (days 0 and 14), at day 42, and at the post-intervention phase (≥day 42).

## CCc1nc(N)nc(N)c1-c1ccc(Cl)cc1 [pyrimethamine]
[1]; after treatment (day 42)
  Median inducible reservoir (TILDA): 10.0 cells per million CD4+ T cells
[1]; before treatment (day 0)
  Median inducible reservoir (TILDA): 15.1 cells per million CD4+ T cells
[1]
  Change in inducible reservoir size: do not indicate a significant change
[1]; listed as PYR
  TILDA reservoir, cells with multiply spliced HIV-RNA detectable per million CD4+ T-cells, >1year: 19.3 per million CD4+ T-cells and 91.8 per million CD4+ T-cells and 13.9 per million CD4+ T-cells and 6.1 per million CD4+ T-cells and 22.2 per million CD4+ T-cells and 15.2 per million CD4+ T-cells
  TILDA reservoir, cells with multiply spliced HIV-RNA detectable per million CD4+ T-cells, Day 42: 8.8 per million CD4+ T-cells and 122.8 per million CD4+ T-cells and 9.0 per million CD4+ T-cells and 1.6 per million CD4+ T-cells and 22.9 per million CD4+ T-cells
  TILDA reservoir, cells with multiply spliced HIV-RNA detectable per million CD4+ T-cells, Day 0, 0 hour: 2.7 per million CD4+ T-cells and 109.8 per million CD4+ T-cells and 16.9 per million CD4+ T-cells and 11.5 per million CD4+ T-cells and 15.1 per million CD4+ T-cells and 20.1 per million CD4+ T-cells and 2.8 per million CD4+ T-cells
[2]; 6-week study duration
  Adverse events experienced on pyrimethamine (monotherapy and combination arms) of all AEs: 84 of 103
  Grade 3 adverse events (number): two
[2]
  Participants who stopped treatment: one
[3]; day 1 time point
  Induction of plasma viremia: no evidence that pyrimethamine induced plasma viremia
[3]; during the study at the fixed measurements, those with pyrimethamine exposure
  Proportion of samples with plasma HIV-1 RNA above the assay detection limit: 22.2%
[3]
  Plasma HIV-1 RNA in the participants not remaining below LOQ: < 50 copies/ml
  Plasma HIV-1 RNA, Day 0, 6hr: < 20
  Plasma HIV-1 RNA, Day 1: < 20
  Plasma HIV-1 RNA, Day 7: < 20
  Plasma HIV-1 RNA, Day 10: < 20
  Plasma HIV-1 RNA, Day 14: < 20
  Plasma HIV-1 RNA, Day 15: < 20
  Plasma HIV-1 RNA, Day 21: < 20
  Plasma HIV-1 RNA, Day 42: < 20
  Plasma HIV-1 RNA, Day 0, 0hr: < 20
[3]; listed as PYR
  Plasma HIV-1 RNA, Day 28: < 20 (6×) and 20

## CCCC(CCC)C(=O)O [valproic acid]
[1]
  Change in inducible reservoir size: remained stable
[1]; listed as VPA
  TILDA reservoir, cells with multiply spliced HIV-RNA detectable per million CD4+ T-cells, >1year: 2.5 per million CD4+ T-cells and 25.5 per million CD4+ T-cells and 286.2 per million CD4+ T-cells and 2.2 per million CD4+ T-cells and 19.0 per million CD4+ T-cells
  TILDA reservoir, cells with multiply spliced HIV-RNA detectable per million CD4+ T-cells, Day 42: 26.0 per million CD4+ T-cells and 12.7 per million CD4+ T-cells and 1.2 per million CD4+ T-cells and 12.9 per million CD4+ T-cells
  TILDA reservoir, cells with multiply spliced HIV-RNA detectable per million CD4+ T-cells, Day 0, 0 hour: 12.5 per million CD4+ T-cells and 100.7 per million CD4+ T-cells and 326.5 per million CD4+ T-cells and 2.5 per million CD4+ T-cells and 17.1 per million CD4+ T-cells and 3.4 per million CD4+ T-cells
[2]
  Participants who stopped treatment: one
[3]
  Plasma HIV-1 RNA in the participants not remaining below LOQ: < 50 copies/ml
  Plasma HIV-1 RNA, Day 0, 6hr: < 20
  Plasma HIV-1 RNA, Day 7: < 20
  Plasma HIV-1 RNA, Day 10: < 20
  Plasma HIV-1 RNA, Day 14: < 20
  Plasma HIV-1 RNA, Day 15: < 20
  Plasma HIV-1 RNA, Day 28: < 20
  Plasma HIV-1 RNA, Day 42: < 20
  Plasma HIV-1 RNA, Day 0, 0hr: < 20
[3]; listed as VPA
  Plasma HIV-1 RNA, Day 1: < 20 (6×) and 41
  Plasma HIV-1 RNA, Day 21: < 20 (6×) and 21

From article PMC10017042 (Science Advances, 2023)
